In patent US6962909B2, “Treatment of neovascularization disorders with squalimine” (Genaera Corporation, priority 1995, dated 2005):
In brackets after ≈: the same amount, converted by molar mass.

Columns and labels:
[1] = system: human microvascular cells; experiment: Endothelial cord formation assay; assay type: cell-based; note: key: + = Inhibition of angiogenesis; − = No inhibition of angiogenesis; T = Toxic; *= cell rounding @ 10 µg/ml
Excerpt: Endothelial cells have the capacity in vitro to form tubular aggregates resembling capillaries in various early stages of formation. This conversion occurs under relatively specific conditions, in which essential growth factors along with an effective substratum are provided. It has been shown that both the interaction of growth factors with the endothelial cell and its attachment to a substratum activate the NHE. The activation of this exchanger is believed to be required for subsequent morphologic transformation of the endothelial cell into a multicellular tubular structure.
To assess the effect of compounds on the cord-like structures formed by human microvascular cells when plated in the presence of VGEF (Vascular Endothelial Growth Factor) and basic fibroblast growth factor on a collagen matrix, a standard cord formation assay was used.

[2] = system: Stage 59-60 Xenopus tadpoles; experiment: Xenopus tadpole assay; assay type: in vivo, Xenopus laevis; details: 10 μg/ml in water
Excerpt: A newly developed assay employing tadpoles, preferably Xenopus laevis Stages 59-60, were employed to study the effect of a compound by monitoring capillary occlusion in the tadpole's tail. […] The compounds of the invention affect the shape, viability and integrity of the embryonic tissues while not affecting the adult tissues, providing a powerful, highly specific screen. For example, substances that destroy all of the animal's epithelium, both adult and embryonic, could be regarded as toxic.
In this assay, tadpoles are introduced into Petri dishes containing a solution of the test compound in distilled water, preferably about 100 ml. The preferred concentration of the test compound is from about 1 μg/ml to about 10 μg/ml. The volume of liquid is sufficient for the animal to swim freely and drink from the solution. Thus, the effect observed results from oral absorption and subsequent systemic distribution of the agent. If the volume of liquid is not sufficient to permit oral intake, the effects that are observed would result from absorption through the surface epithelium. Thus, this simple assay can identify if an compound has characteristics of oral availability.
After an amount of time, typically about 60 minutes, the occlusion of blood flow through capillaries in the tadpole's tail are observed under an inverted microscope at a magnification of roughly 100×.
The tadpole assay described above provides an advantageous way to determine the pharmacological targets of each steroid when introduced into a mammal, and to determine pharmacological categories into which synthetic compounds belong. In the assay, each of the steroids was dissolved in 100 ml of distilled water at a concentration of 10 μg/ml. Stage 59-60 Xenopus tadpoles were introduced and evaluated by light microscopy and gross observation 1 hour later.

[3] = system: vitelline capillaries of 3- to 5-day chick embryo; experiment: Chick embryo vitelline capillary regression assay; assay type: in vivo; set-up: key to Vascular reactivity (capillary regression): + = Vascular reactivity; 0 = No vascular reactivity; +/− = Equivocal reactivity; details: 60 minutes
Experimental: Using the chick embryo vitelline capillaries assay, compounds were tested for their ability to induce capillary regression. Each compound was applied in 0.1 ml of 15% Ficol 400 and PBS onto the embryo, and vascular regression was assessed after 60 minutes.
The 3-day chick embryo consists of an embryonic disc from which numerous vessels emerge and return, forming a “figure 8”-shaped structure—the embryo in the center with vascular loops extending outward over both poles. […] Following a lag period of around 15 minutes, the constriction of continuity between capillary and secondary vessels, generally on the “venous” side, was observed. Continued pulsatile blood flow progressed, resulting in a “swelling” of the blind tube, followed by a pinching off of the remaining connection and formation of an enclosed vascular sac resembling a “blood island.” This process progressed until only the largest vessels remained intact.

[4] = system: E. coli; experiment: Antibiotic activity, MIC; assay type: cell-based; details: Escherichia coli
[5] = system: S. aureus; experiment: Antibiotic activity, MIC; assay type: cell-based; details: Staphylococcus aureus
[6] = system: C. albicans; experiment: Antibiotic activity, MIC; details: Candida albicans
[7] = system: P. aerug; experiment: Antibiotic activity, MIC

Compound	Effect on endothelial cord formation ([1]; 0.1 μg/ml)	Effect on endothelial cord formation ([1]; 1.0 μg/ml)	Effect on endothelial cord formation ([1]; 10.0 μg/ml)	Pharmacological category in tadpole assay (similarity to a reference steroid) [2]	Vascular reactivity (capillary regression) ([3]; 0.001 μg applied)	Vascular reactivity (capillary regression) ([3]; 0.01 μg applied)	Vascular reactivity (capillary regression) ([3]; 0.1 μg applied)	Vascular reactivity (capillary regression) ([3]; 1 μg applied)	MIC [4] [µg/mL]	MIC [5] [µg/mL]	MIC [6] [µg/mL]	MIC [7] [µg/mL]
CC(CCC(=O)O)[C@H]1CCC2C3C(CC[C@@]21C)[C@@]1(C)CC[C@@H](NCCCNCCCCNCCCN)C[C@H]1C[C@H]3O (stereo partly shown) [Compound 412]	−	−	+	pharmacologic activity similar to that seen for FX 3	0	0	0	+				
CC(COS(=O)(=O)O)C(=O)CCC(C)[C@H]1CCC2C3C(CC[C@@]21C)[C@@]1(C)CC[C@H](NCCCNCCCCN)C[C@@H]1C[C@H]3O (stereo partly shown) [drawing 63]									128 (≈ 199 µM)	8 (≈ 12.5 µM)	32 (≈ 49.8 µM)	128 (≈ 199 µM)
COC(=O)CCC(C)[C@H]1CCC2C3C(CC[C@@]21C)[C@@]1(C)CC[C@@H](NCCN)C[C@H]1C[C@H]3O (stereo partly shown) [Compound 410]	−	+		functionally similar to compound 1437	0	+/−	+/−	+				
CC(CCC(=O)O)[C@H]1CCC2C3C(CC[C@@]21C)[C@@]1(C)CC[C@H](NCCCNCCCCN)C[C@@H]1C[C@H]3O (stereo partly shown)									64 (≈ 123 µM)	32 (≈ 61.6 µM)	128 (≈ 246 µM)	32 (≈ 61.6 µM)
COC(=O)CCC(C)[C@H]1CCC2C3C(CC[C@@]21C)[C@@]1(C)CC[C@H](NCCCNCCCCN)C[C@@H]1C[C@H]3O (stereo partly shown)									32 (≈ 59.9 µM)	4 to 8 (≈ 7.49 to 15 µM)	32 (≈ 59.9 µM)	64 (≈ 120 µM)
CC(C)CCCC(C)[C@H]1CCC2C3CC[C@H]4C[C@@H](NCCCNCCCCN)CC[C@]4(C)C3CC[C@@]21C (stereo partly shown)									128 to 256 (≈ 248 to 496 µM)	8 (≈ 15.5 µM)	256 (≈ 496 µM)	128 (≈ 248 µM)
CC(C)CCCC(C)[C@H]1CCC2C3C(CC[C@@]21C)[C@@]1(C)CC[C@@H](N)C[C@@H]1C[C@H]3O (stereo partly shown)									> 256	2 (≈ 4.95 µM)		> 256
CC(C)CCCC(C)[C@H]1CCC2C3CC[C@H]4C[C@H](NCCCNCCCCN)CC[C@]4(C)C3CC[C@@]21C (stereo partly shown)									128 (≈ 248 µM)	2 to 4 (≈ 3.88 to 7.75 µM)	128 (≈ 248 µM)	128 (≈ 248 µM)
COC(O)CCC(C)[C@H]1CCC2C3C(CC[C@@]21C)[C@@]1(C)CC[C@H](NCCCNCCCCNCCCN)C[C@@H]1C[C@H]3O (stereo partly shown)									64 (≈ 108 µM)	2 to 4 (≈ 3.37 to 6.75 µM)	16 (≈ 27 µM)	128 (≈ 216 µM)
CC(CCC(=O)O)[C@H]1CCC2C3CC[C@H]4C[C@H](NCCCNCCCCN)CC[C@]4(C)C3CC[C@@]21C (stereo partly shown)									32 (≈ 63.5 µM)	128 (≈ 254 µM)	> 256	64 (≈ 127 µM)
COC(=O)CCC(C)[C@H]1CCC2C3C(CC[C@@]21C)[C@@]1(C)CC[C@H](NCCN)C[C@H]1C[C@H]3O (stereo partly shown) [Compound 409]				functionally similar to compound 1437				0				
CC(CCC(=O)O)[C@H]1CCC2C3C(CC[C@@]21C)[C@@]1(C)CC[C@H](NCCCNCCCCNCCCN)C[C@H]1C[C@H]3O (stereo partly shown) [Compound 413]	−	−	+	effects like those produced by compound 1436				0				
CC(C)CCCC(C)[C@H]1CCC2C3CC[C@H]4C[C@H](NCCCNCCCCNCCCN)CC[C@]4(C)C3CC[C@@]21C (stereo partly shown)									64 to 128 (≈ 112 to 223 µM)	8 (≈ 14 µM)	16 to 32 (≈ 27.9 to 55.8 µM)	64 (≈ 112 µM)
CC(C)C(O)CCC(C)[C@H]1CCC2C3C(CC[C@@]21C)[C@@]1(C)CC[C@@H](NCCCNCCCCN)C[C@@H]1C[C@H]3O (stereo partly shown)									128 (≈ 234 µM)	16 to 32 (≈ 29.2 to 58.4 µM)	64 (≈ 117 µM)	256 (≈ 467 µM)
